According to PMC12621043, “Un-LOK-ing a New Approach for Conformational Selective Targeting of STK10 (LOK)” (ACS Medicinal Chemistry Letters, 2025):

Experiments:
Experiment in all cases: DSF Tm panel
Assay type in all cases: binding
Conditions in all cases: 10 μM compound
BMP2KA = target: T1, BMP2KA (Homo sapiens, UniProt Q9NSY1)
T1 construct: purchased in-house DSF kinase panel (SGC-style construct names; the trailing letter is the construct ID)

AAK1 (AAK1A) = target: T2, AAK1 (AAK1A) (Homo sapiens, UniProt Q2M2I8)
T2 construct: purchased in-house DSF kinase panel (SGC-style construct names; the trailing letter is the construct ID)

STK10 = target: T3, STK10 (Homo sapiens, UniProt O94804)
T3 construct: purchased in-house DSF kinase panel (SGC-style construct names; the trailing letter is the construct ID)

UKL3A (ULK3A) = target: T4, UKL3A (ULK3A) (Homo sapiens, UniProt Q6PHR2)
T4 construct: purchased in-house DSF kinase panel (SGC-style construct names; the trailing letter is the construct ID)
T4 sequence (Q6PHR2 1-279): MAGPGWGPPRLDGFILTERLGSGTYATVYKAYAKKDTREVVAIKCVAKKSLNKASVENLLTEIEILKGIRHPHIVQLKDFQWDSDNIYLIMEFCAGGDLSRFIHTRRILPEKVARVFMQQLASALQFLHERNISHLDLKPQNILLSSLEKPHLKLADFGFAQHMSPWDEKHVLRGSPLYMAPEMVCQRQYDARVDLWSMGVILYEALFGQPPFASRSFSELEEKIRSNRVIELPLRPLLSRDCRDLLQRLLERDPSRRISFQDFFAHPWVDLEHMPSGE

STK3 (STK3A) = target: T5, STK3 (STK3A) (Homo sapiens, UniProt Q13188)
T5 construct: purchased in-house DSF kinase panel (SGC-style construct names; the trailing letter is the construct ID)
T5 sequence (Q13188 16-313): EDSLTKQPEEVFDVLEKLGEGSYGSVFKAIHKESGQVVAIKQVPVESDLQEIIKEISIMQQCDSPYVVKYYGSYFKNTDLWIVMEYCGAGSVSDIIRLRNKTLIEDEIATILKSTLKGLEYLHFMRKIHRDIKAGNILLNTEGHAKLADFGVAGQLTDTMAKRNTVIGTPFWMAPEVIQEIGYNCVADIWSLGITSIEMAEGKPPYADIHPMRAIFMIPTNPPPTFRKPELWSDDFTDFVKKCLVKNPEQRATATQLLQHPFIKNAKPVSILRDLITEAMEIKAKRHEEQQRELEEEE

DAPK3 (DAPK3A) = target: T6, DAPK3 (DAPK3A) (Homo sapiens, UniProt O43293)
T6 construct: purchased in-house DSF kinase panel (SGC-style construct names; the trailing letter is the construct ID)

FESA = target: T7, FESA (Homo sapiens, UniProt P07332)
T7 construct: purchased in-house DSF kinase panel (SGC-style construct names; the trailing letter is the construct ID)

CASKA = target: T8, CASKA (Homo sapiens, UniProt O14936)
T8 construct: purchased in-house DSF kinase panel (SGC-style construct names; the trailing letter is the construct ID)
T8 sequence (O14936 12-276): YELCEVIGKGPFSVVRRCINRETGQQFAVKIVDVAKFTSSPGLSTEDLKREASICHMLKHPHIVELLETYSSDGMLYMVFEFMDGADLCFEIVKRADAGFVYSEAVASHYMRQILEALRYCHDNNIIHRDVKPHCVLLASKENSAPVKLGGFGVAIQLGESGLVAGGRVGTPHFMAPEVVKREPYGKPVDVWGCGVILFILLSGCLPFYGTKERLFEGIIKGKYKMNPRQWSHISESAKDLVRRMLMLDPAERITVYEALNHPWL

MAP3K5A = target: T9, MAP3K5A (Homo sapiens, UniProt Q99683)
T9 construct: purchased in-house DSF kinase panel (SGC-style construct names; the trailing letter is the construct ID)

MARK4A = target: T10, MARK4A (Homo sapiens, UniProt Q96L34)
T10 construct: purchased in-house DSF kinase panel (SGC-style construct names; the trailing letter is the construct ID)

RPS6KA1A = test system: RPS6KA1A
MAP2K6A = target: T11, MAP2K6A (Homo sapiens, UniProt P52564)
T11 construct: purchased in-house DSF kinase panel (SGC-style construct names; the trailing letter is the construct ID)
T11 sequence (P52564 53-314): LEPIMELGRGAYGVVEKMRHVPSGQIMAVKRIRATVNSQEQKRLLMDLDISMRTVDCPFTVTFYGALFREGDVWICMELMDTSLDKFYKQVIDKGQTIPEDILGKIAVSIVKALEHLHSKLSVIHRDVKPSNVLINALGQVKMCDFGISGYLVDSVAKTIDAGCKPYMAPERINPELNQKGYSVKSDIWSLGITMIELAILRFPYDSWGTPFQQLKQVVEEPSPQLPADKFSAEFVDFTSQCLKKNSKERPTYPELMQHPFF

PIM1 (PIM1A) = target: T12, PIM1 (PIM1A) (Homo sapiens, UniProt P11309)
T12 construct: purchased in-house DSF kinase panel (SGC-style construct names; the trailing letter is the construct ID)

MARK3A = target: T13, MARK3A (Homo sapiens, UniProt P27448)
T13 construct: purchased in-house DSF kinase panel (SGC-style construct names; the trailing letter is the construct ID)

DMPK1A = target: T14, DMPK1A (Homo sapiens, UniProt Q09013)
T14 construct: purchased in-house DSF kinase panel (SGC-style construct names; the trailing letter is the construct ID)
T14 sequence (Q09013 1-629): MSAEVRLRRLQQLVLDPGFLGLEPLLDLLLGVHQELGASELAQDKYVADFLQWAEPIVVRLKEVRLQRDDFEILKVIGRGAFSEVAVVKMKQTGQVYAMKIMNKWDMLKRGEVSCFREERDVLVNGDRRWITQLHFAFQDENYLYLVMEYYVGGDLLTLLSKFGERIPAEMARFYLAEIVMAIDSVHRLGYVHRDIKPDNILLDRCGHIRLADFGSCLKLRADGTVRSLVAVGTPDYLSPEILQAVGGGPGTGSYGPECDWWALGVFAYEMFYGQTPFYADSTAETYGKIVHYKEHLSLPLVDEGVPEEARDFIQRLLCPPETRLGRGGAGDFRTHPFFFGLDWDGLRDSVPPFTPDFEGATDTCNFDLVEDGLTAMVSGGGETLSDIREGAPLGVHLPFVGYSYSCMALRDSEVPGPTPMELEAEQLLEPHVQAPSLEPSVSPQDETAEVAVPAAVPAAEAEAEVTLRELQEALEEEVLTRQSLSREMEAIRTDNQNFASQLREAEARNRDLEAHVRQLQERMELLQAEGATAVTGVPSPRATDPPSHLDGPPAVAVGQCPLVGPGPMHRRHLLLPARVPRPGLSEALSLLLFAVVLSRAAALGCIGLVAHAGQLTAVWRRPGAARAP

CAMK2DA = target: T15, CAMK2DA (Homo sapiens, UniProt Q13557)
T15 construct: purchased in-house DSF kinase panel (SGC-style construct names; the trailing letter is the construct ID)

MAPK1A = target: T16, MAPK1A (Homo sapiens, UniProt P28482)
T16 construct: purchased in-house DSF kinase panel (SGC-style construct names; the trailing letter is the construct ID)

EPHA7A = target: T17, EPHA7A (Homo sapiens, UniProt Q15375)
T17 construct: purchased in-house DSF kinase panel (SGC-style construct names; the trailing letter is the construct ID)

MAPK10A = target: T18, MAPK10A (Homo sapiens, UniProt P53779)
T18 construct: purchased in-house DSF kinase panel (SGC-style construct names; the trailing letter is the construct ID)

SLK = SLK (Homo sapiens, UniProt Q9H2G2); set-up: purchased in-house DSF kinase panel (SGC-style construct names; the trailing letter is the construct ID)

T6 sequence (O43293 whole entry): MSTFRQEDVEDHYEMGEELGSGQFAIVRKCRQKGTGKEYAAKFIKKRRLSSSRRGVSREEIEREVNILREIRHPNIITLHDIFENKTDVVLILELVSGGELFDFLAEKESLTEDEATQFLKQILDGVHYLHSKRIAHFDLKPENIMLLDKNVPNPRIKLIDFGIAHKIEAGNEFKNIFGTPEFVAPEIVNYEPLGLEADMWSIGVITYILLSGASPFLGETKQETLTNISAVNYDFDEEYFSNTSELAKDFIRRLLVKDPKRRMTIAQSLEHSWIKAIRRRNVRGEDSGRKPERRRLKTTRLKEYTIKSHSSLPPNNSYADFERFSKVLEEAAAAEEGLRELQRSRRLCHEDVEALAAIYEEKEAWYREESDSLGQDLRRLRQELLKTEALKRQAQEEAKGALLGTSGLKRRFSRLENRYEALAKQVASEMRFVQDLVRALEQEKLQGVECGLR
T17 sequence (Q15375 590-899): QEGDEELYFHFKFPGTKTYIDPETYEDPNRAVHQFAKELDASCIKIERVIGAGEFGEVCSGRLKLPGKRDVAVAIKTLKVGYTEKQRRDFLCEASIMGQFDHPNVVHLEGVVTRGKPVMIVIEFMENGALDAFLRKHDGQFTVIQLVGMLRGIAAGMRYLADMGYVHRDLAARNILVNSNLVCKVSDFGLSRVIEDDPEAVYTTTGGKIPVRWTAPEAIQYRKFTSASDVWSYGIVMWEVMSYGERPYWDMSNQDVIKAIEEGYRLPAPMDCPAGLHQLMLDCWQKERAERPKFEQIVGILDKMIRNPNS
T1 sequence (Q9NSY1 38-345): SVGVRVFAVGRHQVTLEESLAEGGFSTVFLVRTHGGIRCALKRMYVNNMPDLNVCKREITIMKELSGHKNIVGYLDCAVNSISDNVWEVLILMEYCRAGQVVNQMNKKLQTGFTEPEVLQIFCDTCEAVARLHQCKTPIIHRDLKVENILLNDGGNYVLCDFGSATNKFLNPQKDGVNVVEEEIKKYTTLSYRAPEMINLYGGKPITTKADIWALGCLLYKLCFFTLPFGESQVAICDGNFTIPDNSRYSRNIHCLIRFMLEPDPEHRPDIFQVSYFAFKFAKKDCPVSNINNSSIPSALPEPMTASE
T13 sequence (P27448 56-307): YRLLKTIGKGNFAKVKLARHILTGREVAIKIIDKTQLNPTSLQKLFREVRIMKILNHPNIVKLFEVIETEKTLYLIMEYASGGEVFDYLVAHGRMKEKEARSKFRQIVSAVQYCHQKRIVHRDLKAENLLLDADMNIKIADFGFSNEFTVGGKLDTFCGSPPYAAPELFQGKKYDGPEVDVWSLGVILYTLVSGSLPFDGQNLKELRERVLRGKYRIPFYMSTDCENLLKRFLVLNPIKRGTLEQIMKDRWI
T2 sequence (Q2M2I8 27-365): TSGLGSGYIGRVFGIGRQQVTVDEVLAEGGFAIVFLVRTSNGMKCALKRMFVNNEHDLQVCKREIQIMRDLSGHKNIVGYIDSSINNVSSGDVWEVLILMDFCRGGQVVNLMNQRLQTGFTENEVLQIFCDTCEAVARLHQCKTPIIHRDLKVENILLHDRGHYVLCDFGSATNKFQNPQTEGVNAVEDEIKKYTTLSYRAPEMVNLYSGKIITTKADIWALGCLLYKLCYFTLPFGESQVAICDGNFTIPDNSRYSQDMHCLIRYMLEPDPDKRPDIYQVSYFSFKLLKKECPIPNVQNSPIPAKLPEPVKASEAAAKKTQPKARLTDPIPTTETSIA
T18 sequence (P53779 39-402): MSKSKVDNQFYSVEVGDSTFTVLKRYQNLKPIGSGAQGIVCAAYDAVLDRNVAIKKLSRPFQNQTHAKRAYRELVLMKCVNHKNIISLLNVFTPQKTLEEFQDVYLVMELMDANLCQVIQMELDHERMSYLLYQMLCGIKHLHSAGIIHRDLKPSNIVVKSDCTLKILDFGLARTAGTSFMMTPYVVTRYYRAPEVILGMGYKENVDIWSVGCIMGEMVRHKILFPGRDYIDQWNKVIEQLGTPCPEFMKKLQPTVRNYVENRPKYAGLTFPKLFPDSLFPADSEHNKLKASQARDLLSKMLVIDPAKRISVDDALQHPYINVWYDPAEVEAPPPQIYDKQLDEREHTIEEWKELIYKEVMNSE
T16 sequence (P28482 whole entry): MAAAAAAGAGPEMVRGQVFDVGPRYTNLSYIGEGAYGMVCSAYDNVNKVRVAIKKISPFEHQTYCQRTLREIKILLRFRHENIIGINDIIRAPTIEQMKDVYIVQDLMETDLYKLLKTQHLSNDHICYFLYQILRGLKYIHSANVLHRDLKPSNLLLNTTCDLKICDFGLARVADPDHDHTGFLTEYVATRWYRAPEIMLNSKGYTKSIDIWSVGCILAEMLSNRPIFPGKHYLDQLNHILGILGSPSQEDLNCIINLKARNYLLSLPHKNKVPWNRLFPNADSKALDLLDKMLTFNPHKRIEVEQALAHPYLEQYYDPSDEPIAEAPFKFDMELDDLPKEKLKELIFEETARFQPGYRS
T15 sequence (Q13557 11-309): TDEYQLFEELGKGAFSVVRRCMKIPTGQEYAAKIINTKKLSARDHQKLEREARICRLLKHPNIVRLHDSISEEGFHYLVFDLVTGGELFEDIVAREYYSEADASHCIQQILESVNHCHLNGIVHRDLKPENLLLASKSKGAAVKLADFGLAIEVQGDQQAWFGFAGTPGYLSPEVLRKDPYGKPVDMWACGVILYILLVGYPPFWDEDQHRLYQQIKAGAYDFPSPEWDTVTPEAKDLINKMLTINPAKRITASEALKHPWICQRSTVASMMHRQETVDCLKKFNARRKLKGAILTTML
T10 sequence (Q96L34 59-310): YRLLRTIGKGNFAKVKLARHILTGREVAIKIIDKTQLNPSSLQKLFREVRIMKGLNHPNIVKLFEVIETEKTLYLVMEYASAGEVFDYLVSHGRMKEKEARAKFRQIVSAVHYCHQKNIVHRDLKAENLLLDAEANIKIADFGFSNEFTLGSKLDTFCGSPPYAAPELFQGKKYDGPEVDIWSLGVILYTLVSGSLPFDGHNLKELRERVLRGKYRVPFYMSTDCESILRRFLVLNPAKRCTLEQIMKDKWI
T12 sequence (P11309 whole entry): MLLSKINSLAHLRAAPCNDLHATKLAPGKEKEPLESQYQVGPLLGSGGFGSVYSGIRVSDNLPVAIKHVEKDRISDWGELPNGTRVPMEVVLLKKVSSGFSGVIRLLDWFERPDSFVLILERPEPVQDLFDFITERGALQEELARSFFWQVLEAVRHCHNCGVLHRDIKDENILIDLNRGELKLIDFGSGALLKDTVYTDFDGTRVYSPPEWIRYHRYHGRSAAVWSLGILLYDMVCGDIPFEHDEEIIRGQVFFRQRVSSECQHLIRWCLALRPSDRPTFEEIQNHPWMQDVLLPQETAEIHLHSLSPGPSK
T9 sequence (Q99683 659-951): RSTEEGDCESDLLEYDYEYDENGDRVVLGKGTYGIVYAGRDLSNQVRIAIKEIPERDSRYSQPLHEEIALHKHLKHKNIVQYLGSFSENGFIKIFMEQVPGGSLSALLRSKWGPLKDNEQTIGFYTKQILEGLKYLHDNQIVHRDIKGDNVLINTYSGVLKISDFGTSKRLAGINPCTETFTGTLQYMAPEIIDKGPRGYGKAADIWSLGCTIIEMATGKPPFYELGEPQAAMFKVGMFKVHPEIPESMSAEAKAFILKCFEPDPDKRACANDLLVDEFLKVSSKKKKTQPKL
T3 sequence (O94804 18-317 limits assumed): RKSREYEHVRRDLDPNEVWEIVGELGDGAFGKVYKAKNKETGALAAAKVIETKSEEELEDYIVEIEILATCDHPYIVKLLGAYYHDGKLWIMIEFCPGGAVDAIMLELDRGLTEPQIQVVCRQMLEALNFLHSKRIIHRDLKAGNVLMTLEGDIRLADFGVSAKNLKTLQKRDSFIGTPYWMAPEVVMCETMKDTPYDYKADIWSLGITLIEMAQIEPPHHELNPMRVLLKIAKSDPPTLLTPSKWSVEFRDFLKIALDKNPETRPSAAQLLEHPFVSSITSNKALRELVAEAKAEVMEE
T7 sequence (P07332 whole entry): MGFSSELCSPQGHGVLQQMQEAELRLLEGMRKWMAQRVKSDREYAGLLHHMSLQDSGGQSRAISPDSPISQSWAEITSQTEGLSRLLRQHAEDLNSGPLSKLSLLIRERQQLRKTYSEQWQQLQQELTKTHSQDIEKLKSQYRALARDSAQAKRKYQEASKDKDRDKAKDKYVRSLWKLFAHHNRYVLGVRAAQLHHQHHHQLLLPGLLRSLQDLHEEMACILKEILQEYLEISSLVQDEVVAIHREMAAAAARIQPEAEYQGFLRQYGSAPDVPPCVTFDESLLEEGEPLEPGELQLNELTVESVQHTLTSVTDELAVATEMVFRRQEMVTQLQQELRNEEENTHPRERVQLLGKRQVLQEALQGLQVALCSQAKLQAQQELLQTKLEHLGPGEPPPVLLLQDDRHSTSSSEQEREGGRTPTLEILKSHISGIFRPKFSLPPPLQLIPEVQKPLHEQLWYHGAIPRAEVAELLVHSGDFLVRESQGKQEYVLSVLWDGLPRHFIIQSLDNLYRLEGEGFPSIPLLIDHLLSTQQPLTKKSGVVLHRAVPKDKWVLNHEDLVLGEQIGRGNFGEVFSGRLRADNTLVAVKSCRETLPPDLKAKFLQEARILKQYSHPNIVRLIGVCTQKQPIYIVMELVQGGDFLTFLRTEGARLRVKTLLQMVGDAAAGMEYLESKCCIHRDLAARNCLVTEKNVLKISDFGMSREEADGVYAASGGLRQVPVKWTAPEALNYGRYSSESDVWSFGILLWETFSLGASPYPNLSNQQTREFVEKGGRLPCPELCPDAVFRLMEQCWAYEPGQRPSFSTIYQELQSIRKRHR

SMILES | ΔTm at 10 µM (BMP2KA) [°C] | ΔTm at 10 µM (AAK1 (AAK1A)) [°C] | ΔTm at 10 µM (STK10) [°C] | ΔTm at 10 µM (UKL3A (ULK3A)) [°C] | ΔTm at 10 µM (STK3 (STK3A)) [°C] | ΔTm at 10 µM (DAPK3 (DAPK3A)) [°C] | ΔTm at 10 µM (FESA) [°C] | ΔTm at 10 µM (CASKA) [°C] | ΔTm at 10 µM (MAP3K5A) [°C] | ΔTm at 10 µM (MARK4A) [°C] | ΔTm at 10 µM (MAP2K6A) [°C] | ΔTm at 10 µM (PIM1 (PIM1A)) [°C] | ΔTm at 10 µM (MARK3A) [°C] | ΔTm at 10 µM (DMPK1A) [°C] | ΔTm at 10 µM (CAMK2DA) [°C] | ΔTm at 10 µM (MAPK1A) [°C] | ΔTm at 10 µM (EPHA7A) [°C] | ΔTm at 10 µM (MAPK10A) [°C] | ΔTm at 10 µM (SLK) [°C] | ΔTm RPS6KA1A (RPS6KA1A) | other results
O=C(NCc1ccccc1Cl)Nc1ccc2cc1OCCOCCNc1ccn3ncc-2c3n1 [compound 17] | 9.2 | 7 | 8.5 | 3.2 | 6.2 | 0.7 | 0.2 | 2.8 | 1 | 2.2 | 0.9 | 1.5 | 0.8 | -0.1 | 0.4 | 0.3 | 0.4 | 0.2 | 4.8 | 1,2 °C | 
CN1CCN(C(=O)Nc2ccc3cc2OCCOCCNc2ccn4ncc-3c4n2)CC1 [compound 35] | 11.8 | 7.7 | 3.7 | 2.7 | 3.3 | 2.8 | -0.2 | 0 | 1.7 | 0.8 | 0.4 | 2.4 | 0.5 | 0.2 | 0.5 | 0.3 | -1.4 | -0.7 | 3.3 | 0,7 °C | 
O=C(NCc1ccc(Cl)cc1)Nc1ccc2cc1OCCOCCNc1ccn3ncc-2c3n1 [compound 19] | 9.8 | 7.1 | 10 | 4.6 | 6.7 | 0.9 | 0.4 | 2.2 | 1.4 | 2 | 1.1 | 1.8 | 0.2 | 0.3 | -0.1 | 0.1 | 0.4 | 0.8 | 5.2 | 0,4 °C | 
COc1ccc(CNC(=O)Nc2ccc3cc2OCCOCCNc2ccn4ncc-3c4n2)cc1 [compound 31] | 12 | 6.7 | 6 | 6.1 | 4.4 | 1.2 | 0.8 | 1.8 | 1.6 | 2 | 1.2 | 2 | 0.2 | 1 | 2.8 | 0.9 | 1.8 | 0.7 |  |  | ΔTm STK10 (STK10; 10 µM): 6,7 °C

More lines, main results first:

ΔTm at 10 µM (BMP2KA) [°C] | ΔTm at 10 µM (AAK1 (AAK1A)) [°C] | ΔTm at 10 µM (STK10) [°C] | ΔTm at 10 µM (UKL3A (ULK3A)) [°C] | ΔTm at 10 µM (STK3 (STK3A)) [°C] | ΔTm at 10 µM (DAPK3 (DAPK3A)) [°C] | ΔTm at 10 µM (FESA) [°C] | ΔTm at 10 µM (CASKA) [°C] | ΔTm at 10 µM (MAP3K5A) [°C] | ΔTm at 10 µM (MARK4A) [°C] | ΔTm at 10 µM (MAP2K6A) [°C] | ΔTm at 10 µM (PIM1 (PIM1A)) [°C] | ΔTm at 10 µM (MARK3A) [°C] | ΔTm at 10 µM (DMPK1A) [°C] | ΔTm at 10 µM (CAMK2DA) [°C] | ΔTm at 10 µM (MAPK1A) [°C] | ΔTm at 10 µM (EPHA7A) [°C] | ΔTm at 10 µM (MAPK10A) [°C] | ΔTm at 10 µM (SLK) [°C] | SMILES | ΔTm RPS6KA1A (RPS6KA1A) | other results
6.7 | 6.3 | 9.6 | 2.3 | 8 | 0.5 | 0.5 | 1.7 | 2.2 | 2 | 1.1 | 3 | 1.7 | 0.7 | 0.9 | 0.8 | 1 | 1.6 | 5.8 | O=C(NCc1ccc(Cl)cc1Cl)Nc1ccc2cc1OCCOCCNc1ccn3ncc-2c3n1 [compound 20] | 0,9 °C | 
7.5 | 7.1 | 7.3 | 4.6 | 6.9 | 1.1 | 0.6 | 2.7 | 2.7 | 2.6 | 1.3 | 2.8 | 1.5 | 0.2 | 0.8 | 0.3 | 1.9 | 1.4 | 5.7 | O=C(NCc1ccc(Cl)cc1F)Nc1ccc2cc1OCCOCCNc1ccn3ncc-2c3n1 [compound 21] | 1,1 °C | 
5.9 | 6.5 | 11.1 | 3.7 | 9.1 | -0.3 | 0.5 | 2.5 | 1 | 1.5 | 0.4 | 2.3 | 2.4 | 0.5 | 1.7 | 0.8 | 1 | 1 | 3.5 | Cc1cc(Cl)ccc1CNC(=O)Nc1ccc2cc1OCCOCCNc1ccn3ncc-2c3n1 [compound 23] | 0,8 °C | 
6.7 | 4 | 8.3 | 3.7 | 3.8 | 0.4 | 0.5 | 0.6 | 1.4 | 1.9 | 0.6 | 0.5 | 0.8 | 0.3 | 2.2 | 0.7 | 2 | 0.5 | 2.9 | Cc1cc(Br)ccc1CNC(=O)Nc1ccc2cc1OCCOCCNc1ccn3ncc-2c3n1 [compound 24] | 0,1 °C | 
